The values below come from patent US5659055A, “Cytoprotective fatty moiety compounds” (Virginia Commonwealth University, priority 1995, dated 1997).

Experiment [1] is described as follows: Autooxidation of phosphatidylethanolamine.
Experiment [2] in a line: Oxidation of arachidonic acid (decreased turbidity and hydroperoxide formation).
The subject of experiment [3] is Human SF-PLA2 Induced Mouse Paw Edema. The experiment in a line: Human SF-PLA2 induced mouse paw edema, oral administration. It is filed as in vivo. The method, then: The mouse paw edema is inhibited in dose related fashion by increasing concentrations of RISE-1 given orally 1.0 hours before induction of the edema by SF-PLA2.

`CCCCCCCC/C=C\CCCCCCCCOC(=O)CCCCCCC/C=C\CC(CCCCCC)OC(=O)/C=C/C(=O)O` (stereo not drawn) [OA1RAFA, Oleyl Alcohol-Ricinoleate-Fumaric Acid Diester]: the “effect on the autooxidation of phosphatidylethanolamine” value in experiment [1] was “effective inhibitors”. Still for that read-out and setting: for `CCCCC/C=C\C/C=C\CCCCCCCC(=O)OC(C/C=C\CCCCCCCC(=O)O)CCCCCC` (stereo not drawn) [RALA, Ricinoleic acid--Linoleic Acid Ester] the value was “effective inhibitors”. On the same count and under the same terms, under `CCCCCCCC/C=C\CCCCCCCC(=O)OC(C/C=C\CCCCCCCC(=O)O)CCCCCC` (stereo not drawn) [RAOA, Ricinoleic Acid--Oleic Acid Ester] stands “effective inhibitors”. With `CCCCCCC(C/C=C\CCCCCCCC(=O)O)OC(=O)CCCCCCCCC(=O)O` (stereo not drawn) [RISE-1, Ricinoleic Acid--Sebacyl Ester], in experiment [2], the “effect on the autooxidation of arachidonic acid” value was “no effect”. Moreover, the “effect on the autooxidation of phosphatidylethanolamine” value in experiment [1] was “no effect”. For the same compound, the “oral antiinflammatory activity in this model of edema” value in experiment [3] is “has oral antiinflammatory activity”.
